From patent US11571458B2, “Bacteriocins to improve vaginal colonization of hydrogen peroxide producing lactobacillus for female reproductive health” (Osel, Inc., priority 2018, dated 2023) come the findings set out here.

Where only a bound is given, the exact number is not on record here.

The subject of one test is L. crispatus SJ-3C. In words: combined use of K7 bacteriocins and metronidazole, OD 600 nm. The format is cell-based, Lactobacillus crispatus. As to conditions: 48 hours; K7 bacteriocin 80 BU/mL, metronidazole 42 μg/mL. Here is the method:
(§1) The effectiveness of the combined use of the K7 bacteriocins and metronidazole was tested against L. iners and G. vaginalis in vitro. Cultures of L. iners HM-702 and G. vaginalis HM-133, L. iners+G. vaginalis co-cultures, and L. crispatus SJ-3C were obtained as described previously in Example 1. Overnight cultures of L. iners, G. vaginalis, and L. crispatus were diluted in fresh growth media to concentrations of approximately 10^5 CFU/mL to be tested against K7 bacteriocin (from Example 1), metronidazole (Sigma-Aldrich, USA), and K7 bacteriocin+metronidazole (combined). To each culture of L. iners, G. vaginalis, the L. iners+G. vaginalis co-culture, and L. crispatus was added semi-purified K7 bacteriocin (80 BU/mL, quantified using L. iners as indicator), metronidazole (42 μg/mL), or the K7 bacteriocin+metronidazole combination, and incubated anaerobically at 37° C. for 48 hours. As controls, L. iners, G. vaginalis, the L. iners+G. vaginalis, and L. crispatus were incubated alone with conditioned media for 48 hours as well.

The test system of the next test is L. iners HM-702. The description is as above. The format is cell-based, Lactobacillus iners. As to conditions: 48 hours; K7 bacteriocin 80 BU/mL, metronidazole 42 μg/mL. Here is the method:
as §1

In another test the test system is G. vaginalis HM-133. Described as above. The format is cell-based, Gardnerella vaginalis. The settings on record: 48 hours; K7 bacteriocin 80 BU/mL, metronidazole 42 μg/mL. The method, then: as §1
For another test, the system named is Lactobacillus iners. The test can be described thus: critical dilution assay (bacteriocin activity / MIC). Format: cell-based. The settings on record: for L. iners HM-702 MIC: ratio of peptides about 1:1 (w/w); for anti-L. iners activity of purified chromatography fraction: reverse phase fractions identified by MALDI-TOF; for L. iners HM-702 MIC / MIC against L. iners: L. iners HM-702; for MIC against L. iners: molar value given in brackets.

Test [1] relates to Lactobacillus sakei subsp. sakei ATCC 15521. Described as above. The settings on record: ratio of peptides about 1:1 (w/w). Format: cell-based.

Consider `Cc1ncc([N+](=O)[O-])n1CCO` [metronidazole], for which the “inhibition of L. crispatus SJ-3C (OD 600 nm)” value in the test on L. crispatus SJ-3C is “not significantly inhibited”. For the same molecule, in the test on L. iners HM-702, the “sensitivity of L. iners (OD 600 nm)” value is on record as “not sensitive”. Further, in the test with G. vaginalis HM-133, the “sensitivity of G. vaginalis (OD 600 nm)” value is given as “sensitive”.
Take “NKWGNAVIGAATGATRGVSWCRGFGPWGMTACGLGGAAIGGYLGYKSN (listed as Lactobacillus paragasseri) [GasK7B β, β peptide of two-component bacteriocin gassericin K7B from L. paragasseri K7]”: in the test with Lactobacillus iners (critical dilution assay), the “L. iners HM-702 MIC” value is >0.1 µg/mL. In addition, in the test with Lactobacillus iners, the “anti-L. iners activity of purified chromatography fraction” value is “minor peak of activity”. In test [1], the “L. sakei subsp. sakei ATCC 15521 MIC” value was found to be 0.025 µg/mL.
In the case of “NNVNWGSVAGSCGKGAVMEIYFGNPILGCANGAATSLVLQTASGIYKNYQKKR (listed as Lactobacillus paragasseri) [GasK7A β, β peptide of two-component bacteriocin gassericin K7A]”, in the test with Lactobacillus iners (critical dilution assay), the “L. iners HM-702 MIC” value was >4 µg/mL. The “L. sakei subsp. sakei ATCC 15521 MIC” value in test [1] is >4 µg/mL.
Turning to “RNNWAANIGGAGGATVAGWALGNAVCGPACGFVGAHYVPIAWAGVTAATGGFGKIRK (listed as Lactobacillus paragasseri) [GasK7B α, α peptide of two-component bacteriocin gassericin K7B from L. paragasseri K7]”, in the test with Lactobacillus iners (critical dilution assay), the “L. iners HM-702 MIC” value was determined as 0.025 µg/mL. In addition, in the test with Lactobacillus iners, the “MIC against L. iners” value is given as 5 nM and the “anti-L. iners activity of purified chromatography fraction” value is on record as “greatest anti-L. iners activity”. Besides, the “activity of peptide expressed as MBP fusion in E. coli” value with Lactobacillus iners (critical dilution assay, data not shown) is given as “comparable to the peptide isolated from K7”. Also, the “L. sakei subsp. sakei ATCC 15521 MIC” value in test [1] is 0.0016 µg/mL.

B1: KNWSVAKCGGTIGTNIAIGAWRGARAGSFFGQPVSVGTGALIGASAGAIGGSVQCVGWLAGGGR (protein, listed as Lactobacillus paragasseri)
chain: KNWSVAKCGGTIGTNIAIGAWRGARAGSFFGQPVSVGTGALIGASAGAIGGSVQCVGWLAGGGR
notes: α peptide of two-component bacteriocin gassericin K7A from L. paragasseri K7
B1: in the test with Lactobacillus iners (critical dilution assay), the “L. iners HM-702 MIC” value turned out to be 0.075 µg/mL. For the same molecule, in the test on Lactobacillus iners, the “MIC against L. iners” value worked out at 12 nM. In addition, the “L. sakei subsp. sakei ATCC 15521 MIC” value in test [1] is 0.0094 µg/mL.
